Assay results as given in US11820728B2, “Carbonyl lipids and lipid nanoparticle formulations for delivery of nucleic acids” (Acuitas Therapeutics, Inc., priority 2017, dated 2023).

Assays:
[1] = Determination of pKa of formulated lipids (TNS fluorescence assay in lipid nanoparticles); assay type: physicochemical; conditions: lipid formulated in LNP, 47.5% cationic lipid/10% DSPC/40.8% Cholesterol/1.7% PEG lipid
Procedure: As described elsewhere, the pKa of formulated lipids is correlated with the effectiveness of LNPs for delivery of nucleic acids (see Jayaraman et al, Angewandte Chemie, International Edition (2012), 51(34), 8529-8533; Semple et al, Nature Biotechnology 28, 172-176 (2010)). The preferred range of pKa is ˜5 to ˜7. The pKa of each lipid was determined in lipid nanoparticles using an assay based on fluorescence of 2-(p-toluidino)-6-napthalene sulfonic acid (TNS). Lipid nanoparticles comprising novel lipid or structure (I) or (II)/DSPC/cholesterol/PEG-lipid (50/10/38.5/1.5 or 47.5:10:40.8:1.7 mol %) in PBS at a concentration of 0.4 mM total lipid are prepared using the in-line process as described in Example 1. TNS was prepared as a 100 μM stock solution in distilled water. Vesicles were diluted to 24 μM lipid in 2 mL of buffered solutions containing 10 mM HEPES, 10 mM MES, 10 mM ammonium acetate, and 130 mM NaCl, where the pH ranged from 2.5 to 11. An aliquot of the TNS solution was added to give a final concentration of 1 μM and following vortex mixing fluorescence intensity was measured at room temperature in a SLM Aminco Series 2 Luminescence Spectrophotometer using excitation and emission wavelengths of 321 nm and 445 nm. A sigmoidal best fit analysis was applied to the fluorescence data and the pKa was measured as the pH giving rise to half-maximal fluorescence intensity.
(§1) Tables 3 and 4 provide properties of representative compounds of structure (I) and (II), respectively, which were formulated using the following molar ratio: 47.5% cationic lipid/10% distearoylphosphatidylcholine (DSPC)/40.8% Cholesterol/1.7% PEG lipid (“PEG-DMA” 2-[2-(ω-methoxy(polyethyleneglycol2000)ethoxy]-N,N-ditetradecylacetamide). Relative activity was determined by measuring luciferase expression in the liver 4 hours following administration via tail vein injection as described in Example 1. The activity was compared at a dose of 0.3 and 1.0 mg mRNA/kg and expressed as ng luciferase/g liver measured 4 hours after administration, as described in Example 1.

[2] = tested on: luciferase expression in the liver; assay: Luciferase mRNA in vivo evaluation using lipid nanoparticle compositions; parameters: species or system mice; conditions: tail vein injection, liver 4 hours after administration, LNP 47.5/10/40.8/1.7; for Liver Luc @ 0.3 mg/kg (ng luc/g liver): 0.3 mg mRNA/kg; for Liver Luc @ 1.0 mg/kg (ng luc/g liver): 1.0 mg mRNA/kg
Procedure: A lipid of structure (I) or (II), DSPC, cholesterol and PEG-lipid were solubilized in ethanol at a molar ratio of 50:10:38.5:1.5 or 47.5:10:40.8:1.7. Lipid nanoparticles (LNP) were prepared at a total lipid to mRNA weight ratio of approximately 10:1 to 30:1. Briefly, the mRNA was diluted to 0.2 mg/mL in 10 to 50 mM citrate buffer, pH 4. Syringe pumps were used to mix the ethanolic lipid solution with the mRNA aqueous solution at a ratio of about 1:5 to 1:3 (vol/vol) with total flow rates above 15 mL/min. The ethanol was then removed and the external buffer replaced with PBS by dialysis. Finally, the lipid nanoparticles were filtered through a 0.2 µm pore sterile filter.
Studies were performed in 6-8 week old female C57BL/6 mice (Charles River) 8-10 week old CD-1 (Harlan) mice (Charles River) according to guidelines established by an institutional animal care committee (ACC) and the Canadian Council on Animal Care (CCAC). Varying doses of mRNA-lipid nanoparticle were systemically administered by tail vein injection and animals euthanized at a specific time point (e.g., 4 hours) post-administration. Liver and spleen were collected in pre-weighed tubes, weights determined, immediately snap frozen in liquid nitrogen and stored at −80° C. until processing for analysis.
For liver, approximately 50 mg was dissected for analyses in a 2 mL FastPrep tubes (MP Biomedicals, Solon Ohio). ¼″ ceramic sphere (MP Biomedicals) was added to each tube and 500 μL of Glo Lysis Buffer—GLB (Promega, Madison WI) equilibrated to room temperature was added to liver tissue. Liver tissues were homogenized with the FastPrep24 instrument (MP Biomedicals) at 2×6.0 m/s for 15 seconds. Homogenate was incubated at room temperature for 5 minutes prior to a 1:4 dilution in GLB and assessed using SteadyGlo Luciferase assay system (Promega). Specifically, 50 μL of diluted tissue homogenate was reacted with 50 μL of SteadyGlo substrate, shaken for 10 seconds followed by 5 minute incubation and then quantitated using a CentroXS^3 LB 960 luminometer (Berthold Technologies, Germany). The amount of protein assayed was determined by using the BCA protein assay kit (Pierce, Rockford, IL). Relative luminescence units (RLU) were then normalized to total μg protein assayed. To convert RLU to ng luciferase a standard curve was generated with QuantiLum Recombinant Luciferase (Promega).
The FLuc mRNA (L-6107) from Trilink Biotechnologies will express a luciferase protein, originally isolated from the firefly, photinus pyralis. FLuc is commonly used in mammalian cell culture to measure both gene expression and cell viability. It emits bioluminescence in the presence of the substrate, luciferin. This capped and polyadenylated mRNA is fully substituted with 5-methylcytidine and pseudouridine.
as §1

Row | SMILES | pKa ([1]; structure (I) compounds) | Liver Luc @ 0.3 mg/kg (ng luc/g liver) ([2]; structure (I) compounds) | Liver Luc @ 1.0 mg/kg (ng luc/g liver) ([2]; structure (I) compounds) | pKa ([1]; structure (II) compounds) | Liver Luc @ 0.3 mg/kg (ng luc/g liver) ([2]; structure (II) compounds) | Liver Luc @ 1.0 mg/kg (ng luc/g liver) ([2]; structure (II) compounds)
1 | CCCCCCCCC(CCCCCC)COC(=O)CCCCCCCN(CCCCCCCC(=O)OCC(CCCCCC)CCCCCCCC)CCCCC(=O)N(CC)CC (stereo not shown) [Compound I-11] | 5.89 | 228 ± 101 | 910 ± 454 | – | – | –
2 | CCCCCCCCC(CCCCCC)COC(=O)CCCCCN(CCCCCC(=O)OCC(CCCCCC)CCCCCCCC)CCCN(CCCO)C(=O)CCCCCCC (stereo not shown) [II-16] | – | – | – | 6.08 | 93 ± 38 | 1312 ± 569
3 | CCCCCCCCCN(CCO)C(=O)CCCCN(CCCCCC(=O)OCC(CCCCCC)CCCCCCCC)CCCCCC(=O)OCC(CCCCCC)CCCCCCCC (stereo not shown) [Compound I-6] | 6.32 | 580 ± 209 | 3290 ± 582 | – | – | –
4 | CCCCCCCC(=O)N(C)CCCN(CCCCCC(=O)OCC(CCCC)CCCCCC)CCCCCC(=O)OCC(CCCC)CCCCCC (stereo not shown) [II-14] | – | – | – | 5.63 | 128 ± 17 | 827 ± 537
5 | CCCCCCCCC(CCCCCC)COC(=O)CCCCCN(CCCCCC(=O)OCC(CCCCCC)CCCCCCCC)CCCCC(=O)O (stereo not shown) [Compound I-2] | 5.57 | – | – | – | – | –
6 | CCCCCCCCNC(=O)CCCCN(CCCCCC(=O)OCC(CCCCCC)CCCCCCCC)CCCCCC(=O)OCC(CCCCCC)CCCCCCCC (stereo not shown) [Compound I-3] | 5.99 | 139 ± 43 | 1711 ± 507 | – | – | –
7 | CCCCCCCCC(CCCCCC)COC(=O)CCCCCCCN(CCCCCCCC(=O)OCC(CCCCCC)CCCCCCCC)CCCCC(=O)N(CCCO)CCCCCCCC (stereo not shown) [Compound I-12] | 6.01 | 413 ± 143 | 4002 ± 1573 | – | – | –
8 | CCCCCCCCC(CCCCCC)COC(=O)CCCCCCCN(CCCCCCCC(=O)OCC(CCCCCC)CCCCCCCC)CCCCN(C)C(C)=O (stereo not shown) [II-5] | – | – | – | 6.8 | 146 ± 16 | 695 ± 278
9 | CCCCCCCCC(CCCCCC)COC(=O)CCCCCN(CCCCCC(=O)OCC(CCCCCC)CCCCCCCC)CCCCNC(=O)CCCCCCC (stereo not shown) [II-4] | – | – | – | 5.95 | 150 ± 59 | 1405 ± 306
